In data set [1] the test system is Staphylococcus aureus (SH1000). The experiment in a line: microbe, parasite or virus in culture. It is filed as cell-based. The following applies: 5 h incubation, resazurin readout, tested 300 to 2.3 µM, read-out: MIC90 S. aureus (REMA). (The colour change of resazurin is a common sign of viable cells or microbes.)
Data set [2] deals with M. tuberculosis H37Rv expressing GFP (H37Rv::pJKD6). The experiment in a line: microbe, parasite or virus in culture. The data set is classed as cell-based, Mycobacterium tuberculosis. Conditions: for MIC: Mycobacterium tuberculosis, H37RV, 168 h, read-out: MIC98 M. tuberculosis (GFP).
A further data set has as its system M. tuberculosis H37Rv. The data set is described as follows: microbe, parasite or virus in culture. The data set is classed as cell-based, Mycobacterium tuberculosis. Conditions: 7 days incubation, resazurin readout, tested 300 to 2.3 µM, read-out: MIC90 M. tuberculosis (REMA).
A short description of data set [3]: Cytotoxicity by live imaging (Hoechst 33342 / propidium iodide). The data set is classed as cell-based. The following applies: mouse. How it is done: (§1) The cytotoxicity of the compounds to BALB/3T3 cells was determined using live imaging following both Hoechst 33342 and propidium iodide staining. Briefly, BALB/3T3 cells were seeded in a 384-well plate and 24 h later, the compounds were added (0, 12.5, 25, 50, and 100 µM) to the culture medium, as well as Hoechst 33342 and propidium iodide (PI). Then, 24 h and 48 h after the compounds were added, live imaging was performed using an In Cell Analyzer 6000 (STP GE Healthcare, Glascow, UK). The cytotoxicity was defined based on the ratio of the population of dead or dying cells (propidium iodide staining) to the total cell population (Hoechst staining), as determined using Columbus software 2.9.1 (PerkinElmer Informatics, WA, USA). The compounds were tested in triplicate. Carfilzomib (500, 250, 140, and 60 nM) was used as the positive control in this assay.

In the next data set the test system is M. tuberculosis strains. On the set-up: method as in PMID 9747541. Conditions: cited from earlier work.
The nature of data set [4]: Kinetic solubility in PBS by LC-MS/MS. It is filed as physicochemical. How it is done: The kinetic solubility was determined using LC–MS/MS analysis in PBS at pH 7.4. Briefly, a 10 mM 100% DMSO solution of the compound was diluted 50-fold either in PBS at pH 7.4 (in triplicate) or in DMSO in polypropylene tubes (n = 3 for PBS and n = 6 for DMSO). The tubes were gently shaken for 24 h at 21 °C. Then, the three PBS tubes and three of the six DMSO tubes were centrifuged for 5 min at 4000 rpm and filtered over 0.45 μm filters (Millex-LH Millipore). Then, 40 μL of each solution was diluted in 160 μL of MeCN and 40 µL of Milli-Q water and transferred to matrix tubes for the LC–MS/MS analysis. The solubility was determined according to the following formula: Solubility (μM) = (AUC (filtered PBS)/AUC (not filtered DMSO)) × 200. The test was validated if (AUC (not filtered DMSO) − AUC (filtered DMSO))/AUC (not filtered DMSO) ≤ 10%.

For the next data set, the system named is BALB/3T3 cells. The data set is described as follows: Cytotoxicity by live imaging (Hoechst 33342 / propidium iodide). The data set is classed as cell-based. Conditions: BALB/3T3 cells; 0, 12.5, 25, 50, 100 µM; imaging at 24 h and 48 h; read-out: Cytotoxicity Balb3T3 CC50. How it is done:
as §1

[5] abbreviates: Mycobacterium tuberculosis, H37RV, 168 h.
Setting [6] is: 21 °C, pH 7.4, aqueous buffer, kinetic from dmso stock.

Here are results for six compounds from publication PMC10744032, “Regioselective and Stereoselective Synthesis of Parthenolide Analogs by Acyl Nitroso-Ene Reaction and Their Biological Evaluation against Mycobacterium tuberculosis” (International Journal of Molecular Sciences, 2023).

≈ marks a conversion by molar mass, not a printed value. Where two headings read alike, the source gives them in different places.

One may read the CC50 as the concentration at which the toxic effect on the cells reaches its halfway point. What is called solubility is the concentration that dissolves in the medium under given conditions. Regarding `C=C1C(=O)O[C@H]2[C@H]1CC/C(C)=C/CC[C@@]1(C)O[C@@H]21` [Compound 1, Parthenolide], the results for the MIC90 (in data set [1] (Staphylococcus aureus); in the data set on M. tuberculosis H37Rv (setting [5])) were over 300 µM and 9.4 to 19 µM (≈ 2.33 to 4.72 µg/mL), respectively. In data set [2], the MIC fell in the range of 9.4 to 19 µM (≈ 2.33 to 4.72 µg/mL). The same compound registered a CC50 in data set [3] of over 100 µM. Further, the “minimum inhibitory concentration (MIC) against M. tuberculosis strains” value with M. tuberculosis strains is on record as 16 µg/mL (≈ 64.4 µM). For the same compound, in data set [4] (setting [6]), the solubility at 24 h came to 135 µM (≈ 33.5 µg/mL).
Regarding `C=C1CC[C@H]2C(=C)C(=O)O[C@@H]2[C@@H]2O[C@]2(C)CC[C@H]1N(O)C(=O)OCc1ccccc1` [Compound 14, Benzyl-N-hydroxy-N-[(1S,2S,4R,7R,11S)-4-methyl-8,12-dimethylene-13-oxo-3,14-dioxatricyclo[9.3.0.02,4]tetradecan-7-yl]carbamate], the MIC90 in data set [1] (Staphylococcus aureus) was over 300 µM; in the data set on M. tuberculosis H37Rv (setting [5]), 75 µM (≈ 31 µg/mL). In addition, the MIC in data set [2] worked out at 38 µM (≈ 15.7 µg/mL). In data set [3], the half-maximal cytotoxic concentration (CC50) was over 12.5 µM. The compound also had a solubility at 24 h in data set [4] (setting [6]) of 191 µM (≈ 79 µg/mL).
On to `C=C1CC[C@H]2C(=C)C(=O)O[C@@H]2[C@@H]2O[C@]2(C)CC[C@H]1N(O)C(=O)Nc1ccc(C)cc1` [Compound 5, 1-hydroxy-1-[(1S,2S,4R,7R,11S)-4-methyl-8,12-dimethylene-13-oxo-3,14-dioxatricyclo[9.3.0.02,4]tetradecan-7-yl]-3-(p-tolyl)urea], for which the results for the MIC90 (in data set [1] (Staphylococcus aureus); with M. tuberculosis H37Rv (setting [5])) were over 300 µM and 19 to 38 µM (≈ 7.84 to 15.7 µg/mL), respectively. For the same compound, the MIC in data set [2] turned out to be 19 µM (≈ 7.84 µg/mL). This compound showed a 50% cytotoxic concentration (CC50) in data set [3] of 12.5 µM. In data set [4] (setting [6]), this compound returned a solubility at 24 h of 186 µM (≈ 76.7 µg/mL).
For `C=C1CC[C@H]2C(=C)C(=O)O[C@@H]2[C@@H]2O[C@]2(C)CC[C@H]1N(O)C(=O)NCc1ccccc1` [Compound 6, 3-benzyl-1-hydroxy-1-[(1S,2S,4R,7R,11S)-4-methyl-8,12-dimethylene-13-oxo-3,14-dioxatricyclo [9.3.0.02,4]tetradecan-7-yl]urea], in that order: over 300 µM, 38 to 75 µM (≈ 15.7 to 30.9 µg/mL), 19 to 38 µM (≈ 7.84 to 15.7 µg/mL), over 25 µM and 196 µM (≈ 80.8 µg/mL).
Taken in the same sequence, the figures for `C=CCOC(=O)N(O)[C@@H]1CC[C@@]2(C)O[C@H]2[C@H]2OC(=O)C(=C)[C@@H]2CCC1=C` [Compound 13, Allyl-N-hydroxy-N-[(1S,2S,4R,7R,11S)-4-methyl-8,12-dimethylene-13-oxo-3,14-dioxatricyclo [9.3.0.02,4]tetradecan-7-yl]carbamate] were over 300 µM, 38 to 75 µM (≈ 13.8 to 27.3 µg/mL), 38 µM (≈ 13.8 µg/mL), over 12.5 µM and 192 µM (≈ 69.8 µg/mL).
With “tert-butyl-N-hydroxy-N-[(1S,2S,4R,7R,11S)-4-methyl-8,12-dimethylene-13-oxo-3,14-dioxatricyclo[9.3.0.02,4]tetradecan-7-yl]carbamate [Compound 12]”, the MIC90 in data set [1] is given as over 300 µM; with M. tuberculosis H37Rv it was 38 µM. For the same compound, the “MIC98 M. tuberculosis (GFP)” value in data set [2] fell in the range of 19 to 38 µM. The CC50 with BALB/3T3 cells is over 100 µM. Further, the solubility at 24 h in data set [4] (kinetic solubility, PBS pH 7.4, 24 h at 21 °C, from 10 mM DMSO solution diluted 50-fold, read-out: Solubility) is on record as 176 µM.
